According to patent publication US5459270A, “Azacyclic compounds, processes for their preparation and pharmaceutical compositions containing them” (Merck Sharp & Dohme Limited, priority 1991, dated 1995):
pIC50: −log10 of the molar value. “And” between values parts separate entries of the source, which are not always exact repeats. Equal entries are not always repeated. Structures can show the parent of a compound that is named as a salt. Where two headings read alike, the source gives them in different places.

Molecular target: human neurokinin-1-receptor (NK1R) (Homo sapiens, UniProt P25103)
Experiment: biochemical
Format: binding
Conditions: for inhibition at 0.3 µM / inhibition at 1 µM: 1 h; for inhibition at 0.3 µM: read-out: % @ 300 nM (in column IC50 @ NKIR); for pIC50: displacement of 125I-substance P; for inhibition at 1 µM: read-out: % @ 1 μM (in column IC50 @ NKIR)
Method: To express the cloned human neurokinin-1-receptor (NK1R) transiently in COS, the cDNA for the human NK1R was cloned into the expression vector pCDM9 which was derived from pCDM8 (INVITROGEN) by inserting the ampicillin resistance gene (nucleotide 1973 to 2964 from BLUESCRIPT SK+ (trademark, […], La Jolla, Calif., USA)) into the Sac II site. Transfection of 20 ug of the plasmid DNA into 10 million COS cells was achieved by electroporation in 800 μl of transfection buffer (135 mM NaCl, 1.2 mM CaCl2, 1.2 mM MgCl2, 2.4 mM K2 HPO4, 0.6 mM KH2 PO4, 10 mM glucose, 10 mM N-2-hydroxyethyl-piperazine-N'-2-ethane sulphonic acid (HEPES) pH 7.4) at 260 V and 950 μF using the IBI GENEZAPPER (trademark IBI, New Haven, Conn., USA). The cells were incubated in 10% fetal calf serum, 2 mM glutamine, 100 U/ml penicillin-streptomycin, and 90% DMEM media (GIBCO, Grand Island, N.Y., USA) in 5% CO2 at 37° C. for three days before the binding assay.
To establish a stable cell line expressing cloned human NK1R, the cDNA was subcloned into the vector pRcCMV (INVITROGEN). Transfection of 20 μg of the plasmid DNA into CHO cells was achieved by electroporation in 800 μl of transfection buffer supplemented with 0.625 mg/ml Herring sperm DNA at 300 V and 950 μF using the IBI GENEZAPPER (IBI). The transfected cells were incubated in CHO media [10% fetal calf serum, 100 U/ml penicillin-streptomycin, 2 mM glutamine, 1/500 hypoxanthine-thymidine (ATCC), 90% IMDM media (JRH BIOSCIENCES, Lenexa, Kans., USA), 0.7 mg/ml G418 (GIBCO)] in 5% CO2 at 37° C. until colonies were visible. Each colony was separated and propagated. The cell clone with the highest number of human NK1R was selected for subsequent applications such as drug screening.
The binding assay of human NK1R expressed in either COS or CHO cells is based on the use of ^125 I-substance P (^125 I-SP, from DU PONT, Boston, Mass.) as a radioactively labeled ligand which competes with unlabeled substance P or any other ligand for binding to the human NK1R. […] The tubes were incubated at 4° C. or at room temperature for 1 hour with gentle shaking. The bound radioactivity was separated from unbound radioactivity by GF/C filter (BRANDEL, Gaithersburg, Md.) which was pre-wetted with 0.1% polyethylenimine. The filter was washed with 3 ml of wash buffer (50 mM Tris pH 7.5, 5 mM MnCl2, 50 mM NaCl) three times and its radioactivity was determined by gamma counter.

[1] = human NK1R in COS or CHO cells, read-out: IC50 @ NKIR
[2] = 300 nM, human NK1R in COS or CHO cells, 125I-substance P

Chain of human neurokinin-1-receptor (NK1R) (P25103 whole entry): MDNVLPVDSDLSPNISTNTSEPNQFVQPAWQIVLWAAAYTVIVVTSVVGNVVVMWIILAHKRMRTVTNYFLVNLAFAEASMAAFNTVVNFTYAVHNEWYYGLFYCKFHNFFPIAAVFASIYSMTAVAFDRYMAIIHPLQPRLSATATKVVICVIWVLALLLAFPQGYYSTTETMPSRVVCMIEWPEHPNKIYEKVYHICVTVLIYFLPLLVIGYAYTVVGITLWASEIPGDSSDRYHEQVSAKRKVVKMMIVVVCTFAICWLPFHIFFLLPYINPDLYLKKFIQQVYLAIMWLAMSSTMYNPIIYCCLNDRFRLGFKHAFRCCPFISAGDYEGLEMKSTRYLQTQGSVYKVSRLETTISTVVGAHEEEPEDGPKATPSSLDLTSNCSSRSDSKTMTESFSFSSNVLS

pIC50 [1] | Compound | other results
 | N#Cc1cccc(CO[C@H]2CCCN[C@H]2c2ccccc2)c1 (relative stereo) [Example 53, cis-3((3-cyanophenyl)methyloxy)-2-phenylpiperidine hydrochloride salt] | inhibition at 0.3 µM: 40%
7.10 | O=CN1CCC[C@H](OCc2cc(C(F)(F)F)cc(C(F)(F)F)c2)[C@@H]1c1ccccc1 [Example 16, (2S,3S)-1-Formyl-3-((3,5-bis(trifluoromethyl)phenyl)methyloxy)-2-phenyl piperidine] | 
8.70 | CC1CC[C@H](OCc2cc(C(F)(F)F)cc(C(F)(F)F)c2)[C@H](c2ccccc2)N1 (stereo partly drawn) [Example 20, cis-3-(3,5-Bis(trifluoromethyl)phenyl)methyloxy-6-methyl-2-phenyl piperidinium hydrochloride] | 
9.05 | CC(C(N)=O)N1CCC[C@H](OCc2cc(C(F)(F)F)cc(C(F)(F)F)c2)[C@@H]1c1ccccc1 (single isomer, unassigned) [Example 19, hydrochloride] | 
7.70 | cis-3-((3,5-Bis(trifluoromethyl)phenyl)methyloxy-1-(N-benzylcarboxamido)methyl-2-phenyl piperidinium hydrochloride [Example 49] | 
7.35 | CC1(OCc2cc(C(F)(F)F)cc(C(F)(F)F)c2)CCCNC1c1ccccc1 (stereo not drawn) [Example 48, 3-((3,5-Bis(trifluoromethyl)phenyl)methyloxy)-3-methyl-2-phenylpiperidine oxalate salt] | 
8.85 | CCN(CC)C(=O)CN1CCCC(OCc2cc(C(F)(F)F)cc(C(F)(F)F)c2)C1c1ccccc1 (single isomer, unassigned) [Example 43, cis-3-((3,5-Bis(trifluoromethyl)phenyl)methyloxy-1-(N,N-diethylcarboxamido)methyl-2-phenylpiperidinium hydrochloride] | 
7.40 | COC(=O)CCN1CCC[C@H](OCc2cc(C(F)(F)F)cc(C(F)(F)F)c2)[C@@H]1c1ccccc1 (relative stereo) [Example 29, cis-3-((3,5-Bis(trifluoromethyl)phenyl)methyloxy)-1-(2-carbomethoxy)ethyl-2-phenylpiperidine] | 
 | Cc1cc(C)cc(CO[C@H]2CN(C)[C@H]2c2ccccc2)c1 (relative stereo) [Example 51, cis-3-((3,5-Dimethylphenyl)methyloxy)-1-methyl-2-phenyl azetidine oxalate salt] | inhibition at 1 µM: 40%
6.52 | FC(F)(F)c1cc(CO[C@@H]2CCCN[C@H]2c2ccccc2)cc(C(F)(F)F)c1 (relative stereo) [Example 13, trans-3-((3,5-Bis(trifluoromethyl)phenyl)methyloxy)-2-phenyl piperidine hydrochloride salt] | 
 | FC(F)(F)c1cc(CO[C@H]2CCCN(Cc3cc(C(F)(F)F)cc(C(F)(F)F)c3)[C@H]2c2ccccc2)cc(C(F)(F)F)c1 (relative stereo) [Example 42] | inhibition at 0.3 µM [2]: 45%
7.82 | O=C1CC[C@H](OCc2cc(C(F)(F)F)cc(C(F)(F)F)c2)[C@H](c2ccccc2)N1 (relative stereo) [Example 28, cis-3-((3,5-Bis(trifluoromethyl)phenyl)methyloxy)-6-keto-2-phenyl piperidine] | 
8.60 | O=C(CN1CCC[C@H](OCc2cc(C(F)(F)F)cc(C(F)(F)F)c2)[C@@H]1c1ccccc1)NC1CC1 [Example 57, (2S,3S)-3-((3,5-Bis(trifluoromethyl)phenyl)methyloxy)-1-((N-cyclopropyl)-2-phenylpiperidinium hydrochloride] | 
 | Cc1cc(CO[C@H]2CCCN[C@H]2c2ccccc2)cc([Si](C)(C)C)c1 [Example 44, cis-3-((3-methyl-5-trimethylsilyl)benzyloxy)-2-phenyl piperidine] | pIC50 (IC50 @ NKIR, human NK1R in COS or CHO cells): 9.52
8.70 | OCC1CC[C@H](OCc2cc(C(F)(F)F)cc(C(F)(F)F)c2)[C@H](c2ccccc2)N1 (stereo partly drawn) [Example 55] | 
7.15 | FC(F)(F)c1cc(CO[C@H]2CCCN[C@H]2c2cccs2)cc(C(F)(F)F)c1 (relative stereo) [Example 25, cis-3-((3,5-Bis(trifluoromethyl)phenyl)methyloxy)-2-thienyl piperidine hydrochloride salt] | 
 | FC(F)(F)c1cc(CO[C@H]2CCCN[C@H]2c2ccccn2)cc(C(F)(F)F)c1 (relative stereo) [Example 26, cis-3-((3,5-Bis(trifluoromethyl)phenyl)methyloxy)-2-pyridyl piperidine dihydrochloride salt] | inhibition at 0.3 µM [2]: 41%
7.00 | CC(C)(C)c1cc(CO[C@H]2CCCN[C@H]2c2ccccc2)cc(C(C)(C)C)c1 (relative stereo) [Example 35, cis-3-((3,5.-Di-t-butylphenyl)methyloxy)-2-phenylpiperidine oxalate salt] | 
7.40 | FC(F)(F)c1cc(CO[C@H]2CCCN[C@H]2c2ccccc2Cl)cc(C(F)(F)F)c1 (relative stereo) [Example 21, cis-3-((3,5-Bis(trifluoromethyl)phenyl)methyloxy)-2-(2-chlorophenyl)piperidine] | 
9.05 | NC(CN1CCC[C@H](OCc2cc(C(F)(F)F)cc(C(F)(F)F)c2)[C@@H]1c1ccccc1)=NO (relative stereo) [Example 39] | 
7.00 | C[N+]1(C)CCC[C@H](OCc2cc(C(F)(F)F)cc(C(F)(F)F)c2)[C@@H]1c1ccccc1 [Example 14, (2S,3S)-3-((3,5-Bis(trifluoromethyl)phenyl)methyloxy)-1,1-dimethyl2-phenylpiperidinium iodide] | 
7.82 | Cc1ccc([C@@H]2NCCC[C@@H]2OCc2cc(C(F)(F)F)cc(C(F)(F)F)c2)cc1 (relative stereo) [Example 24, cis-3-(3,5,-Bis(trifluoromethyl)phenyl)methyloxy)-2-(4-methylphenyl)piperidine hydrochloride salt] | 
7.60 | CC(C)(C)NC(=O)CN1CCC[C@H](OCc2cc(C(F)(F)F)cc(C(F)(F)F)c2)[C@@H]1c1ccccc1 [Example 56, (2S,3S)-3-((3,5-Bis(trifluoromethyl)phenyl)methyloxy-1-((N-t-butyl)carboxamidomethyl)-2-phenylpiperidinium hydrochloride] | 
8.70 | Clc1cc(Cl)cc(CO[C@H]2CCCN[C@H]2c2ccccc2)c1 (relative stereo) [Example 47, cis-3-((3,5-Dichlorophenyl)methyloxy)-2-phenylpiperidine hydrochloride salt] | 
7.70 | CN1CCC[C@H](OCc2cc(C(F)(F)F)cc(C(F)(F)F)c2)[C@@H]1c1ccccc1 [Example 10, (+)-cis-3-((3,5-Bis(trifluoromethyl)phenyl)methyloxy)-1-methyl-2-phenylpiperidine] | 
 | Cc1cc(C)cc(CO[C@@H]2CCCN[C@H]2c2ccccc2)c1 (relative stereo) [Example 12, trans-((3.5-Dimethylphenyl)methyloxy)-2-phenyl piperidine hydrochloride salt] | inhibition at 1 µM (1 μM, human NK1R in COS or CHO cells, 125I-substance P): 46%
7.00 | COC(=O)CCCN1CCC[C@H](OCc2cc(C(F)(F)F)cc(C(F)(F)F)c2)[C@@H]1c1ccccc1 (relative stereo) [Example 31, cis-3-((3,5Bis(trifluoromethyl)phenyl)methyloxy)-1-(3-carbomethoxy)propyl-2-phenylpiperidine] | 
9.30 | Cc1cc(I)cc(CO[C@H]2CCCN[C@H]2c2ccccc2)c1 [Example 36] | 

Compound | pIC50 [1] | other results
FC(F)(F)c1cc(CO[C@H]2CCCN[C@H]2c2ccccc2)cc(C(F)(F)F)c1 [Example 5, (+)-cis-3((3,5-Bis(trifluoromethyl)phenyl)methyloxy)-2-phenylpiperidine hydrochloride salt] | 9.00 | 
FC(F)(F)c1cc(CO[C@H]2CCCN[C@H]2c2ccccc2)cc(C(F)(F)F)c1 (relative stereo) [Example 4, cis-3-((3,5-Bis(trifluoromethyl)phenyl)methyloxy)-2-phenylpiperidine hydrochloride salt] | 8.70 and 8.85 | 
